Values of other authors, collected in patent US20240299470A1, “METHODS OF PROBIOTIC TREATMENT TO IMPROVE HUMAN HEALTH” (SEED HEALTH INC., priority 2021, published 2024).

Columns and labels:
overweight individuals = settings: delivered directly in the colon
mice = settings: NOD2-dependent but MyD88-independent

| Compound | energy intake, adiposity, and lipid liver content (overweight individuals) | plasma levels of peptide YY (PYY) and glucagon-like peptide 1 (GLP-1) (overweight individuals) | protection from colitis (mice) |
| --- | --- | --- | --- |
| CCC(=O)O [propionate] | reduced | increased | – |
| M-tri-Lys | – | – | protected mice from colitis |
